From patent US12186331B2, “Compositions comprising at least one n-acetylated and at least one fucosylated oligosaccharide for use in the promotion of digestive capacity in infants and young children” (SOCIETE DES PRODUITS NESTLE S.A., priority 2017, dated 2025)
“Also recorded” adds a separate entry of the source.

Test system: villi in the ileum of IUGR rats
Experiment: Villi length in the ileum of young rats with intra-uterine growth retardation (IUGR) fed HMO-supplemented diet
Format: in vivo, Sprague-Dawley rats
Conditions: IUGR rat pups, 3 g/kg body weight by gavage d7-d21, 4.5% in diet d22-d57, sacrifice at day 57, compared with IUGR group and other groups
Description: Three groups of time-mated pregnant Sprague-Dawley female rats were bought from Charles River laboratories. One group was submitted to food restriction of 60% during the last 10 days of gestation and their offspring were cross-fostered to normally fed rats. A second group of pregnant females was normally fed and their offspring cross-fostered among the same group of dams. […] Normal-weight offspring born from unrestricted dams and fed a normal non-supplemented diet; • IUGR group (negative control; n=20): IUGR rats being fed a normal diet after birth; • IUGR rats+HMO (test groups): During the experiment, they were reared by their mothers for 21 days and supplemented with HMOs (2FL, LNnT or the Mix of 2FL and LNnT). At weaning, they were fed a diet supplemented with the same HMOs, see details below. […] All rat pups were fed from birth (d=1) up to 57 days (d=57) based on the following protocol: • d1 to d6: all groups of rats were nursed by dam (mothers' milk only); • d7 to d21: all rats were nursed by dam (mothers' milk only). But in the test groups, 3 g/kg body weight of HMO were also administered by gavage: • 3 g/kg body weight of 2FL, for the IUGR/2FL group; • 3 g/kg body weight of LNnT, for the IUGR/LNnT group; • 3 g/kg body weight of a mix of LNnT and 2FL at a 1:2 weight ratio, for the IUGR/HMOs mix group; • […] to […]: all rats were fed a diet as detailed in Table 2 below. Rats were sacrificed at day 57 after a 6-hr fasting period and samples of the small intestine were collected. The length of the villi was measured on a sample of the ileum. One 1-cm sample from the ileum (1 cm cranial from caecum) was collected and flushed with PBS (Sigma D8537). This section was fixed and processed accordingly for histological and morphometric analysis. Two consecutive 4 μm-thick sections of fixed tissue were stained manually with hematoxylin and eosin to determine villus height. […] Ten randomly selected villi were measured in two different segments to determine the mean villi length.

| Molecule | mean villi length in the ileum | mean villi length in the ileum (listed as 2-FL) |
| --- | --- | --- |
| 2′-fucosyllactose [2FL] | neither 2FL, nor LNnT achieved a statistically significant effect when used alone | no significant difference with the IUGR group |
| CC(=O)N[C@H]1[C@H](O[C@H]2[C@@H](O)[C@@H](CO)O[C@@H](O[C@H]3[C@H](O)[C@@H](O)C(O)O[C@@H]3CO)[C@@H]2O)O[C@H](CO)[C@@H](O[C@@H]2O[C@H](CO)[C@H](O)[C@H](O)[C@H]2O)[C@@H]1O (mixture of isomers) [LNnT, lacto-N-neotetraose] | neither 2FL, nor LNnT achieved a statistically significant effect when used alone; also recorded: no significant difference with the IUGR group |  |
